From article PMC7717600, “Novel [(N-alkyl-3-indolylmethylene)hydrazono]oxindoles arrest cell cycle and induce cell apoptosis by inhibiting CDK2 and Bcl-2: synthesis, biological evaluation and in silico studies” (Journal of Enzyme Inhibition and Medicinal Chemistry, 2020)

Key:
[1] = test system: SF-268; conditions: SF-268, 10 μM
[2] = test system: A-549; assay: SRB anti-proliferative assay; type: cell-based; conditions: Homo sapiens, A549; A-549, SRB, mean ± SE of 3
[3] = test system: MALME-3M; conditions: 10 μM
[4] = test system: KM12; conditions: KM12, 10 μM
[5] = test system: SNB-75; conditions: SNB-75, 10 μM
[6] = test system: A549/ATCC; conditions: 10 μM
[7] = test system: SN12C; conditions: 10 μM
[8] = test system: SNB-19; conditions: SNB-19, 10 μM
[9] = test system: SR; conditions: 10 μM
[10] = test system: CCRF-CEM; conditions: 10 μM
[11] = test system: HT29; conditions: HT29, 10 μM
[12] = test system: HCT-116; assay: SRB anti-proliferative assay; type: cell-based; conditions: Homo sapiens; HCT-116, SRB, mean ± SE of 3
[13] = test system: MDA-MB-231; assay: SRB anti-proliferative assay; type: cell-based; conditions: Homo sapiens; MDA-MB-231, SRB, mean ± SE of 3
[14] = test system: SW-620; conditions: SW-620, 10 μM
[15] = test system: UO-31; conditions: UO-31, 10 μM
[16] = test system: T-47D; conditions: 10 μM
[17] = test system: MOLT-4; conditions: MOLT-4, 10 μM
[18] = test system: TK-10; conditions: TK-10, 10 μM
[19] = test system: SK-MEL-5; conditions: SK-MEL-5, 10 μM
[20] = test system: HOP-92; conditions: HOP-92, 10 μM
[21] = test system: OVCAR-5; conditions: OVCAR-5, 10 μM
[22] = test system: PC-3; assay: NCI SRB screening; type: cell-based, human; conditions: PC-3, 10 μM
[23] = test system: SK-MEL-2; conditions: SK-MEL-2, 10 μM
[24] = test system: K-562; conditions: K-562, 10 μM
[25] = test system: SK-MEL-28; conditions: SK-MEL-28, 10 μM
[26] = test system: SK-OV-3; conditions: SK-OV-3, 10 μM
[27] = test system: SF-539; conditions: SF-539, 10 μM
[28] = test system: BT-549; conditions: BT-549, 10 μM
[29] = test system: NCI-H460; assay: NCI SRB screening; type: cell-based, human; conditions: NCI-H460, 10 μM
[30] = test system: MDA-MB-231/ATCC; conditions: MDA-MB-231, 10 μM
[31] = test system: EKVX; conditions: 10 μM
[32] = test system: RPMI-8226; conditions: RPMI-8226, 10 μM
[33] = test system: M14; assay: NCI SRB screening; type: cell-based; conditions: M14, 10 μM
[34] = test system: OVCAR-8; conditions: OVCAR-8, 10 μM
[35] = test system: NCI-H322M; assay: NCI SRB screening; conditions: 10 μM
[36] = test system: OVCAR-3; conditions: OVCAR-3, 10 μM
[37] = test system: 786-0; conditions: 786-0, 10 μM
[38] = test system: MCF7; conditions: MCF7, 10 μM
[39] = test system: HL-60(TB); conditions: HL-60(TB), 10 μM
[40] = test system: UACC-257; conditions: UACC-257, 10 μM
[41] = test system: IGROV1; conditions: IGROV1, 10 μM
[42] = test system: ACHN; conditions: 10 μM
[43] = test system: COLO 205; assay: NCI SRB screening; type: cell-based, human; conditions: COLO 205, 10 μM

## C=CCn1cc(C=NN=C2C(=O)Nc3c(F)cccc32)c2ccccc21 [Compound 10c]
[1]
  GI %: – (Only GI % higher than 10% are shown)
[2]
  IC50: 43.8 ± 2.96 µM
[3]
  GI %: – (Only GI % higher than 10% are shown)
[4]
  GI %: – (Only GI % higher than 10% are shown)
[5]
  GI %: – (Only GI % higher than 10% are shown)
[6]
  GI %: – (Only GI % higher than 10% are shown)
[7]
  GI %: – (Only GI % higher than 10% are shown)
[8]
  GI %: – (Only GI % higher than 10% are shown)
[9]
  GI %: 58%
[10]
  GI %: 17%
[11]
  GI %: – (Only GI % higher than 10% are shown)
[12]
  IC50: 7.3 ± 0.47 µM
[13]
  IC50: 35.4 ± 1.92 µM
[14]
  GI %: – (Only GI % higher than 10% are shown)
[15]
  GI %: 29%
[16]
  GI %: 50%
[17]
  GI %: 19%
[18]
  GI %: – (Only GI % higher than 10% are shown)
[19]
  GI %: – (Only GI % higher than 10% are shown)
[20]
  GI %: – (Only GI % higher than 10% are shown)
[21]
  GI %: – (Only GI % higher than 10% are shown)
[22]
  GI %: 10%
[23]
  GI %: – (Only GI % higher than 10% are shown)
[24]
  GI %: 20%
[25]
  GI %: – (Only GI % higher than 10% are shown)
[26]
  GI %: – (Only GI % higher than 10% are shown)
[27]
  GI %: – (Only GI % higher than 10% are shown)
[28]
  GI %: – (Only GI % higher than 10% are shown)
[29]
  GI %: – (Only GI % higher than 10% are shown)
[30]
  GI %: – (Only GI % higher than 10% are shown)
[31]
  GI %: 15%
[32]
  GI %: – (Only GI % higher than 10% are shown)
[33]
  GI %: – (Only GI % higher than 10% are shown)
[34]
  GI %: 11%
[35]
  GI %: – (Only GI % higher than 10% are shown)
[36]
  GI %: 13%
[37]
  GI %: – (Only GI % higher than 10% are shown)
[38]
  GI %: 31%
[39]
  GI %: – (Only GI % higher than 10% are shown)
[40]
  GI %: – (Only GI % higher than 10% are shown)
[41]
  GI %: 31%
[42]
  GI %: 11%
[43]
  GI %: – (Only GI % higher than 10% are shown)

## C=CCn1cc(C=NN=C2C(=O)Nc3ccc(Cl)cc32)c2ccccc21 [Compound 10d]
[1]
  GI %: – (Only GI % higher than 10% are shown)
[2]
  IC50: 53.1 ± 4.13 µM
[3]
  GI %: – (Only GI % higher than 10% are shown)
[4]
  GI %: – (Only GI % higher than 10% are shown)
[5]
  GI %: – (Only GI % higher than 10% are shown)
[6]
  GI %: – (Only GI % higher than 10% are shown)
[7]
  GI %: – (Only GI % higher than 10% are shown)
[8]
  GI %: – (Only GI % higher than 10% are shown)
[9]
  GI %: 33%
[10]
  GI %: – (Only GI % higher than 10% are shown)
[11]
  GI %: – (Only GI % higher than 10% are shown)
[12]
  IC50: 28.5 ± 1.59 µM
[13]
  IC50: 42.9 ± 2.51 µM
[14]
  GI %: – (Only GI % higher than 10% are shown)
[15]
  GI %: 23%
[16]
  GI %: 30%
[17]
  GI %: 14%
[18]
  GI %: – (Only GI % higher than 10% are shown)
[19]
  GI %: – (Only GI % higher than 10% are shown)
[20]
  GI %: – (Only GI % higher than 10% are shown)
[21]
  GI %: – (Only GI % higher than 10% are shown)
[22]
  GI %: – (Only GI % higher than 10% are shown)
[23]
  GI %: – (Only GI % higher than 10% are shown)
[24]
  GI %: – (Only GI % higher than 10% are shown)
[25]
  GI %: – (Only GI % higher than 10% are shown)
[26]
  GI %: – (Only GI % higher than 10% are shown)
[27]
  GI %: – (Only GI % higher than 10% are shown)
[28]
  GI %: – (Only GI % higher than 10% are shown)
[29]
  GI %: – (Only GI % higher than 10% are shown)
[30]
  GI %: – (Only GI % higher than 10% are shown)
[31]
  GI %: 33%
[32]
  GI %: – (Only GI % higher than 10% are shown)
[33]
  GI %: – (Only GI % higher than 10% are shown)
[34]
  GI %: – (Only GI % higher than 10% are shown)
[35]
  GI %: – (Only GI % higher than 10% are shown)
[36]
  GI %: – (Only GI % higher than 10% are shown)
[37]
  GI %: – (Only GI % higher than 10% are shown)
[38]
  GI %: 18%
[39]
  GI %: – (Only GI % higher than 10% are shown)
[40]
  GI %: – (Only GI % higher than 10% are shown)
[41]
  GI %: 23%
[42]
  GI %: – (Only GI % higher than 10% are shown)
[43]
  GI %: – (Only GI % higher than 10% are shown)
